Measurements: patent publication US20050250799A1, “Protease inhibitors for treatment of wrinkles” (priority 2004, published 2005)

How the values were obtained:
[1] = target: T1, Omi/HtrA2 (His-Omi 134-458) (Homo sapiens, UniProt O43464); details: cited from earlier work
T1 construct: His
T1 sequence (O43464 134-458): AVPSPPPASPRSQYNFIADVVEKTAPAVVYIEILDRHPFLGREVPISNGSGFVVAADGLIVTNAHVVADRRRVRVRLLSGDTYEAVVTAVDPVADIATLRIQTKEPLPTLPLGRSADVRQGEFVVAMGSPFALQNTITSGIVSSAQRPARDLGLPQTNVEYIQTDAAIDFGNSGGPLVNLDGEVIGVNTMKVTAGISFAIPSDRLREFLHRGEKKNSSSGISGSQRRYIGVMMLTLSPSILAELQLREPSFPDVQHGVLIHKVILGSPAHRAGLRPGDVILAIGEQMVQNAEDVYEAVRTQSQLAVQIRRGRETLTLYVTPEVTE

mice ears = assay: Example 1: effect on ear thickness (skin irritancy); format: in vivo, mice (FVB strain); details: for Left ear thickness (mean): 10 μl on left ear
Protocol: Control thickness of mice ears (FVB strain, male, 7 weeks of age, n=3/group) was measured with a thickness gauge (Mitsutoyo Corp.). After measuring the thickness of both ears, 10 μl of ucf-101 solution (1.0% or 0.1%) was applied to the left ear and 10 μl of solvent was applied to the right ear. Ear thickness was measured for three consecutive days after administration.

[2] = test system: UVB-induced wrinkle formation; assay: Example 3: UVB-induced skin wrinkling; format: in vivo, hairless Skh-1 mice; details: 100 μl on back skin three times weekly, 10 weeks, category 0 (no wrinkle) to 4 (severe wrinkle)
Protocol: (§1) Five groups of mice (7-week-old female hairless Skh-1 mice, n=3/group) were used: group 1: UVB+1% ucf-101 in DMSO; group 2: UVB+DMSO control; group 3: UVB+0.1% ucf-101 in acetone; group 4: UVB+acetone control; group 5: no UVB control.
(§2) Groups 1, 2, 3 and 4 were exposed to UVB irradiation using fluorescent lamps (Southern New England Ultraviolet) to deliver 0.35 mW/cm^2 at the dorsal skin surface of the mice. After irradiation, the indicated samples (100 μl each) for each group were applied to the back skin. This procedure was repeated three times weekly for ten weeks, to simulate chronic UVB exposure. […] The total cumulative dose was 6.54 J/cm^2 UVB.
(§3) After 10 weeks, skin wrinkling was evaluated using five categories (0: no wrinkle; 1: slight wrinkle; 2: clear wrinkle; 3: strong wrinkle; 4: severe wrinkle). Mice of group 1 and group 2 were sacrificed and back skin samples were snap-frozen in liquid nitrogen. Immunohistochemical staining was performed on 7-micrometer frozen sections using a monoclonal rat anti-mouse CD31 antibody (BD Pharmingen). Representative sections were obtained from UVB irradiated mice and were analyzed using a Nikon E-600 microscope. Images were captured with a Spot digital camera (Diagnostic Instruments), and morphometric analyses were performed using the IP-LAB software. Areas occupied by blood vessels were determined in the dermis.

[3] = test system: UVB-induced vessel dilation; assay: Example 3: dermal blood vessel area (CD31 staining) after UVB; format: in vivo, hairless Skh-1 mice; details: UVB + 1% in DMSO, 100 μl on back skin three times weekly, 10 weeks; dermis
Protocol: as §1, §2, §3

back skin of mice = assay: Example 5: skin irritation score on back skin; format: in vivo, mice (FVB strain); details: 0.1% in 25% DMSO + 75% ethanol, 5 μl on back skin, score 0 (no erythema) to 4
Protocol: The hair of the back skin of mice (FVB strain, female, 7 weeks of age, n=3/group) was clipped by an electric clipper on day 0. 5 μl of test sample solution (˜1 cm diameter) was applied on the back skin. After 24 hours (day 1), skin irritation was measured on the basis of a scoring system (0: no erythema; 1: very slight erythema; 2: well-defined erythema; 3: moderate erythema; 4: several erythema and edema) and a second dose administered. After a second 24 hours (day 2), skin irritation was measured and a third dose administered. After a third 24 hours (day 3), skin irritation was again measured.

[4] = test system: caspase-9 (−/−) null fibroblasts; details: cited from earlier work
[5] = test system: UVB-induced vessel dilation; assay: Example 6: dermal blood vessel area (CD31 staining) after UVB; format: in vivo, Skh-1 hairless mice; details: UVB + 0.1% in 25% DMSO + 75% ethanol, 100 μl on back skin three times weekly, 10 weeks; dermis
[6] = test system: UVB-induced wrinkle formation; assay: Example 6: UVB-induced skin wrinkling; format: in vivo, Skh-1 hairless mice; details: UVB + 0.1% in 25% DMSO + 75% ethanol, 100 μl on back skin three times weekly, 10 weeks; category 0 (no wrinkle) to 4 (severe wrinkle)
UVB-irradiated mice ears = assay: Example 2: ear thickness on UVB-exposed skin; format: in vivo, mice (Swiss Webster strain); details: 1% in DMSO; for Left ear thickness (mean): UVB 80 mJ/cm^2, 5 μl on days 0, 1, 2
Protocol: The ear thickness of mice (Swiss Webster strain, male, 7 weeks of age, n=3/group) was measured with a thickness gauge (Mitsutoyo Corp.) on day 0. After measuring the thickness of both ears, both ears were UVB-irradiated (80 mJ/cm^2). 5 μl of 1% ucf-101 in DMSO was applied to the left ear and 5 μl of DMSO was applied to the right ear. After 24 hours (day 1), ear thickness was measured and a second dose administered (left ear 1% ucf-101 in DMSO; right ear: DMSO). After a second 24 hours (day 2), ear thickness was again measured and a third dose administered (left ear 1% ucf-101 in DMSO; right ear: DMSO). Ear thickness was then monitored over four additional consecutive days (days 3-6).

[7] = test system: various other serine proteases; details: various other serine proteases tested; cited from earlier work

## O=C1C(=Cc2ccc(-c3ccccc3[N+](=O)[O-])o2)C(=O)N(c2ccccc2)C(=S)N1c1ccccc1 [Ucf-101]
[1]
  IC50: 9.5 µM
Mice ears; 0.1% in acetone, day 0 (before application)
  Left ear thickness (mean): 29.0 ×0.01 mm
Mice ears; 0.1% in acetone, day 1
  Left ear thickness (mean): 30.0 ×0.01 mm
Mice ears; 0.1% in acetone, day 2
  Left ear thickness (mean): 29.3 ×0.01 mm
Mice ears; 0.1% in acetone, day 3
  Left ear thickness (mean): 29.0 ×0.01 mm
Mice ears; 1% in DMSO or 0.1% in acetone
  irritancy (ear thickness compared to solvent alone): not an irritant
Mice ears; 1% in DMSO, day 0 (before application)
  Left ear thickness (mean): 28.0 ×0.01 mm
Mice ears; 1% in DMSO, day 1
  Left ear thickness (mean): 28.7 ×0.01 mm
Mice ears; 1% in DMSO, day 2
  Left ear thickness (mean): 28.7 ×0.01 mm
Mice ears; 1% in DMSO, day 3
  Left ear thickness (mean): 28.3 ×0.01 mm
[2]; UVB + 0.1% in acetone
  Wrinkle category (mean): 1.67
[2]; UVB + 1% in DMSO
  Wrinkle category (mean): 1.33
[3]
  Percent of vessel area (mean): 7.1%
Back skin of mice; day 0
  skin irritation score: 0
Back skin of mice; day 1
  skin irritation score: 0
Back skin of mice; day 2
  skin irritation score: 0
Back skin of mice; day 3
  skin irritation score: 0
[4]
  block of Omi/HtrA2 induced cell death: block Omi/HtrA2 induced cell death
[5]
  Percent of vessel area (mean): 4.7%
[6]
  Wrinkle category (mean): 1.00
UVB-irradiated mice ears; day 0 (before UVB and application)
  Left ear thickness (mean): 31.0 ×0.01 mm
UVB-irradiated mice ears; day 1
  Left ear thickness (mean): 36.3 ×0.01 mm
UVB-irradiated mice ears; day 2
  Left ear thickness (mean): 40.0 ×0.01 mm
UVB-irradiated mice ears; day 3
  Left ear thickness (mean): 42.3 ×0.01 mm
UVB-irradiated mice ears; day 4
  Left ear thickness (mean): 42.7 ×0.01 mm
UVB-irradiated mice ears; day 5
  Left ear thickness (mean): 39.3 ×0.01 mm
UVB-irradiated mice ears; day 6
  Left ear thickness (mean): 38.3 ×0.01 mm
UVB-irradiated mice ears; UVB-exposed ears
  ear thickness (irritancy) compared to control: did not increase ear thickness
[7]
  IC50: 200 µM
